Data as given in PubChem BioAssay (NCI).
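Tested at 5 concentrations; 48 h exposure; 96-well plates; endpoints linearly interpolated, else capped at highest concentration. The concentration for 50% growth inhibition is given as GI50. TGI: total growth inhibition.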

How the values were obtained:
Assay in all cases: NCI-60 cell line screen, 48 h
T-47D breast = system: T-47D breast
SR leukemia = system: SR leukemia
NCI/ADR-RES ovarian = system: NCI/ADR-RES ovarian
SF-295 CNS = system: SF-295 CNS
SW-620 colon = system: SW-620 colon
UACC-62 melanoma = system: UACC-62 melanoma
ACHN renal = system: ACHN renal
SK-MEL-2 melanoma = system: SK-MEL-2 melanoma
NCI-H522 lung = system: NCI-H522 lung
NCI-H226 lung = system: NCI-H226 lung
SK-MEL-28 melanoma = system: SK-MEL-28 melanoma
KM12 colon = system: KM12 colon
A498 renal = system: A498 renal
SK-MEL-5 melanoma = system: SK-MEL-5 melanoma
UO-31 renal = system: UO-31 renal
SF-539 CNS = system: SF-539 CNS
NCI-H23 lung = system: NCI-H23 lung
DU-145 prostate = system: DU-145 prostate
BT-549 breast = system: BT-549 breast
HOP-92 NSCLC = system: HOP-92 NSCLC
U251 CNS = system: U251 CNS
MALME-3M melanoma = system: MALME-3M melanoma
MDA-MB-468 breast = system: MDA-MB-468 breast
MDA-MB-231 breast = system: MDA-MB-231 breast
UACC-257 melanoma = system: UACC-257 melanoma
IGROV1 ovarian = system: IGROV1 ovarian
PC-3 prostate = system: PC-3 prostate
MDA-MB-435 = system: MDA-MB-435
HS 578T breast = system: HS 578T breast
SNB-19 CNS = system: SNB-19 CNS
SNB-75 CNS = system: SNB-75 CNS
CCRF-CEM leukemia = system: CCRF-CEM leukemia
CAKI-1 renal = system: CAKI-1 renal
SK-OV-3 ovarian = system: SK-OV-3 ovarian
K-562 leukemia = system: K-562 leukemia
OVCAR-4 ovarian = system: OVCAR-4 ovarian
HCC-2998 colon = system: HCC-2998 colon
OVCAR-5 ovarian = system: OVCAR-5 ovarian
M14 melanoma = system: M14 melanoma
SN12C renal = system: SN12C renal
HOP-62 NSCLC = system: HOP-62 NSCLC
SF-268 CNS = system: SF-268 CNS
EKVX NSCLC = system: EKVX NSCLC
MOLT-4 leukemia = system: MOLT-4 leukemia
LOX IMVI melanoma = system: LOX IMVI melanoma
786-0 renal = system: 786-0 renal
HL-60(TB) leukemia = system: HL-60(TB) leukemia
TK-10 renal = system: TK-10 renal
NCI-H460 lung = system: NCI-H460 lung

SMILES: C=C(C)[C@@H]1CC[C@]2(C)[C@H](CC=C3[C@@H]4CC(C)(C)CC[C@]4(C(=O)N4CCOCC4)CC[C@]32C)[C@@]1(C)CCCN
- GI50 (T-47D breast): 1860 nM
- TGI (T-47D breast): 4700 nM
- GI50 (SR leukemia): 407 nM
- TGI (SR leukemia): 3090 nM
- GI50 (NCI/ADR-RES ovarian): 1440 nM
- TGI (NCI/ADR-RES ovarian): 2770 nM
- GI50 (SF-295 CNS): 1300 nM
- TGI (SF-295 CNS): 2400 nM
- GI50 (SW-620 colon): 1190 nM
- TGI (SW-620 colon): 2270 nM
- GI50 (UACC-62 melanoma): 1560 nM
- TGI (UACC-62 melanoma): 3560 nM
- GI50 (ACHN renal): 1340 nM
- TGI (ACHN renal): 2400 nM
- GI50 (SK-MEL-2 melanoma): 1430 nM
- TGI (SK-MEL-2 melanoma): 2960 nM
- GI50 (NCI-H522 lung): 1340 nM
- TGI (NCI-H522 lung): 2550 nM
- GI50 (NCI-H226 lung): 2780 nM
- TGI (NCI-H226 lung): 16500 nM
- GI50 (SK-MEL-28 melanoma): 1240 nM
- TGI (SK-MEL-28 melanoma): 2280 nM
- GI50 (KM12 colon): 1350 nM
- TGI (KM12 colon): 2600 nM
- GI50 (A498 renal): 1410 nM
- TGI (A498 renal): 3100 nM
- GI50 (SK-MEL-5 melanoma): 1560 nM
- TGI (SK-MEL-5 melanoma): 3470 nM
- GI50 (UO-31 renal): 1350 nM
- TGI (UO-31 renal): 3200 nM
- GI50 (SF-539 CNS): 1260 nM
- TGI (SF-539 CNS): 2280 nM
- GI50 (NCI-H23 lung): 1310 nM
- TGI (NCI-H23 lung): 2450 nM
- GI50 (DU-145 prostate): 1500 nM
- TGI (DU-145 prostate): 2960 nM
- GI50 (BT-549 breast): 9160 nM
- TGI (BT-549 breast): 24000 nM
- GI50 (HOP-92 NSCLC): 1250 nM
- TGI (HOP-92 NSCLC): 2710 nM
- GI50 (U251 CNS): 1280 nM
- TGI (U251 CNS): 2390 nM
- GI50 (MALME-3M melanoma): 1310 nM
- TGI (MALME-3M melanoma): 2380 nM
- GI50 (MDA-MB-468 breast): 1200 nM
- TGI (MDA-MB-468 breast): 2330 nM
- GI50 (MDA-MB-231 breast): 1370 nM
- TGI (MDA-MB-231 breast): 2430 nM
- GI50 (UACC-257 melanoma): 1290 nM
- TGI (UACC-257 melanoma): 2610 nM
- GI50 (IGROV1 ovarian): 1560 nM
- TGI (IGROV1 ovarian): 2990 nM
- GI50 (PC-3 prostate): 1490 nM
- TGI (PC-3 prostate): 3870 nM
- GI50 (MDA-MB-435): 1220 nM
- TGI (MDA-MB-435): 2310 nM
- GI50 (HS 578T breast): 1400 nM
- TGI (HS 578T breast): 2990 nM
- GI50 (SNB-19 CNS): 2120 nM
- TGI (SNB-19 CNS): 6820 nM
- GI50 (SNB-75 CNS): 2000 nM
- TGI (SNB-75 CNS): 7890 nM
- GI50 (CCRF-CEM leukemia): 1330 nM
- TGI (CCRF-CEM leukemia): 3680 nM
- GI50 (CAKI-1 renal): 1230 nM
- TGI (CAKI-1 renal): 2250 nM
- GI50 (SK-OV-3 ovarian): 7350 nM
- TGI (SK-OV-3 ovarian): 21300 nM
- GI50 (K-562 leukemia): 1960 nM
- TGI (K-562 leukemia): 73500 nM
- GI50 (OVCAR-4 ovarian): 1380 nM
- TGI (OVCAR-4 ovarian): 2690 nM
- GI50 (HCC-2998 colon): 1220 nM
- TGI (HCC-2998 colon): 2250 nM
- GI50 (OVCAR-5 ovarian): 1380 nM
- TGI (OVCAR-5 ovarian): 2690 nM
- GI50 (M14 melanoma): 1430 nM
- TGI (M14 melanoma): 3250 nM
- GI50 (SN12C renal): 1290 nM
- TGI (SN12C renal): 2440 nM
- GI50 (HOP-62 NSCLC): 1390 nM
- TGI (HOP-62 NSCLC): 2830 nM
- GI50 (SF-268 CNS): 1980 nM
- TGI (SF-268 CNS): 6220 nM
- GI50 (EKVX NSCLC): 1370 nM
- TGI (EKVX NSCLC): 2880 nM
- GI50 (MOLT-4 leukemia): 1730 nM
- TGI (MOLT-4 leukemia): 4620 nM
- GI50 (LOX IMVI melanoma): 1250 nM
- TGI (LOX IMVI melanoma): 2260 nM
- GI50 (786-0 renal): 1180 nM
- TGI (786-0 renal): 2340 nM
- GI50 (HL-60(TB) leukemia): 1000 nM
- TGI (HL-60(TB) leukemia): 3320 nM
- GI50 (TK-10 renal): 1640 nM
- TGI (TK-10 renal): 4360 nM
- GI50 (NCI-H460 lung): 1190 nM
- TGI (NCI-H460 lung): 2250 nM
